{
  "source": "patent US20240174647A1",
  "about": "(NEURON23, INC., priority 2022, published 2024)",
  "data": [
    {"biological_target": "wt human LRRK2, catalytic site (Homo sapiens (Human), UniProt Q5S007)", "sequence (Q5S007 1879-2138)": "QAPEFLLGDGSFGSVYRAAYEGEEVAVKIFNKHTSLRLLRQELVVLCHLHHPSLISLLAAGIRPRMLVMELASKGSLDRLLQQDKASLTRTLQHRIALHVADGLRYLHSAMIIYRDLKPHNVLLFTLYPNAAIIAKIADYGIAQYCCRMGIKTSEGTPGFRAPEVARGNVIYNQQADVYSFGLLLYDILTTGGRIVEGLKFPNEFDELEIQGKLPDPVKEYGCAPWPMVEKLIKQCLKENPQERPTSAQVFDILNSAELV", "assay": "TR-FRET LanthaScreen Tb Kinase Activity Assay (LRRK2 kinase inhibition)", "type": "biochemical", "conditions": "2 nM wt human LRRK2, 400 nM fluorescein-ERM (LRRKtide) peptide, 38 μM ATP, 120 minutes at room temperature", "protocol": "The compounds in Table 1 were tested for their inhibitory effect on LRRK2 kinase according to the following procedures.\nThe protocol for basic TR-FRET LanthaScreen Tb Kinase Activity Assay inhibitor studies were as follows. LanthaScreen Kinase Activity Assays (ThermoFisher/USA) to evaluate inhibitors were performed by addition of 100 nL of test compound in corresponding DMSO dilutions/5 μL of kinase/fluorescein-ERM(LRRKtide) peptide mixture, 5 μL of ATP into 384 well small volume plates. After incubation for 120 minutes at room temperature, the detection reagents containing Tb-anti-pLRRKtide antibody were added to monitor phosphrylation level of peptide. Then, after 60 min minutes incubation at room temperature plates were read in Envision. Data analysis of emission ratios was according to LanthaScreen Tb Kinase Activity Assay protocol.\nKinase and assay components were adjusted to final concentrations according to the kit protocol. For LRRK2: 2 nM wt human LRRK2, catalytic site, catalytic site (ThermoFisher/USA), 400 nM peptide, 38 μM ATP in 1× Kinase Buffer A.\nBasic protocol for TR-FRET LanthaScreen Tb Kinase Activity Assay inhibitor studies involved two steps: • Enzymatic step: Addition of 100 nL of test compound in corresponding DMSO dilutions, 5 μL of kinase/substrate mixture, 5 μL of ATP into 384 well small volume plates. Incubation for 120 minutes at room temperature. • Detection step: Addition of 10 μL EDTA & antibody, read plate after 60 minutes. Data analysis of emission ratios according to KinEASE assay protocol.\nKinase and assay components were adjusted to final concentrations according to the kit protocol.\nIn the table below, activity is provided as follows: +++=IC50 less than 50 nM; ++=IC50 between 50 nM and 200 nM; +=IC50>=200 nM", "units": {"IC50": "nM"}, "values": [
      {"smiles": "CCNc1nc(Nc2ccc(F)c3c2cnn3CC(C)(C)O)nc2[nH]nc(Cl)c12", "note": "[Example 181, 1-(4-((3-chloro-4-(ethylamino)-1H-pyrazolo[3,4-d]pyrimidin-6-yl)amino)-7-fluoro-1H-indazol-1-yl)-2-methylpropan-2-ol]", "IC50": "< 50"},
      {"smiles": "CNc1nc(Nc2cc(/C=C/C(=O)N3CCOCC3)cc3[nH]ncc23)ncc1C(F)(F)F", "note": "[Example 52]", "IC50": "< 50"},
      {"smiles": "CNc1nc(Nc2cccc3[nH]nc(C)c23)ncc1C(F)(F)F", "note": "[Example 48, N4-methyl-N2-(3-methyl-1H-indazol-4-yl)-5-(trifluoromethyl)pyrimidine-2,4-diamine]", "IC50": "50 to 200"},
      {"smiles": "CNc1nc(Nc2ccc3cnn(C)c3c2OC)ncc1C(F)(F)F", "note": "[Example 14, N2-(7-methoxy-1-methyl-1H-indazol-6-yl)-N4-methyl-5-(trifluoromethyl)pyrimidine-2,4-diamine]", "IC50": "50 to 200"},
      {"smiles": "CCNc1nc(Nc2ccc(F)c3c2cnn3CC(C)(C)O)nc2[nH]nc(C)c12", "note": "[Example 205, 1-[4-[[4-(ethylamino)-3-methyl-1H-pyrazolo[3,4-d]pyrimidin-6-yl]amino]-7-fluoro-indazol-1-yl]-2-methyl-propan-2-ol]", "IC50": "< 50"},
      {"smiles": "CNc1nc(Nc2cccc3cn[nH]c23)ncc1C(F)(F)F", "note": "[Example 75, N2-(1H-indazol-7-yl)-N4-methyl-5-(trifluoromethyl)pyrimidine-2,4-diamine]", "IC50": "50 to 200"},
      {"smiles": "CNc1nc(Nc2c(OC)ccc3nn(C)cc23)ncc1C(F)(F)F", "note": "[Example 40, N2-(5-methoxy-2-methyl-2H-indazol-4-yl)-N-methyl-5-(trifluoromethyl) pyrimidine-2,4-diamine]", "IC50": "≥ 200"},
      {"smiles": "CNc1nc(Nc2cccc3c2cnn3CCS(C)(=O)=O)ncc1C(F)(F)F", "note": "[Example 188, N^4-methyl-N^2-[1-(2-methylsulfonylethyl)indazol-4-yl]-5-(trifluoromethyl) pyrimidine-2,4-diamine]", "IC50": "< 50"},
      {"smiles": "CNc1nc(Nc2ccc3cnn(C)c3c2C)ncc1C(F)(F)F", "note": "[Example 15, N2-(1,7-dimethyl-1H-indazol-6-yl)-N4-methyl-S-(trifluoromethyl)pyrimidine-2,4-diamine]", "IC50": "50 to 200"},
      {"smiles": "CNc1nc(Nc2cccc3c2cnn3C)ncc1Cl", "note": "[Example 79, 5-chloro-N4-methyl-N2-(1-methyl-1H-indazol-4-yl)pyrimidine-2,4-diamine]", "IC50": "< 50"},
      {"smiles": "CNc1nc(Nc2ccc(C3=CCOCC3)c3c2cnn3CC#N)ncc1C(F)(F)F", "note": "[Example 83, 2-(7-(3,6-dihydro-2H-pyran-4-yl)-4-((4-(methylamino)-5-(trifluoromethyl)pyrimidin-2-yl)amino)-1H-indazol-1-yl)acetonitrile]", "IC50": "< 50"},
      {"smiles": "CNc1nc(Nc2ccc(CCC(=O)N3CCOCC3)c3c2cnn3C)ncc1C(F)(F)F", "note": "[Example 58, 3-(1-methyl-4-((4-(methylamino)-5-(trifluoromethyl)pyrimidin-2-yl)amino)-1H-indazol-7-yl)-1-morpholinopropan-1-one]", "IC50": "< 50"},
      {"smiles": "CS(=O)(=O)CCn1ncc2c(Nc3ncc(C(F)F)c(NC4CC4)n3)cccc21", "note": "[Example 192, N^4-cyclopropyl-5-(difluoromethyl)-N^2-[1-(2-methylsulfonylethyl)indazol-4-yl]pyrimidine-2,4-diamine]", "IC50": "< 50"},
      {"smiles": "CNc1nc(Nc2cc3[nH]ncc3cc2C(F)(F)F)ncc1C(F)(F)F", "note": "[Example 123, N^4-methyl-5-(trifluoromethyl)-N^2-[5-(trifluoromethyl)-1H-indazol-6-yl]pyrimidine-2,4-diamine]", "IC50": "≥ 200"},
      {"smiles": "CNc1nc(Nc2ccc(C3CCOCC3)c3c2cnn3C)ncc1C(F)(F)F", "note": "[Example 88, N4-methyl-N2-(1-methyl-7-(tetrahydro-2H-pyran-4-yl)-1H-indazol-4-yl)-5-(trifluoromethyl)pyrimidine-2,4-diamine]", "IC50": "< 50"},
      {"smiles": "CS(=O)(=O)CCn1ncc2c(Nc3ncc(C(F)(F)F)c(NC4CC4)n3)ccc(F)c21", "note": "[Example 177, N^4-cyclopropyl-N^2-[7-fluoro-1-(2-methylsulfonylethyl)indazol-4-yl]-5-(trifluoromethyl)pyrimidine-2,4-diamine]", "IC50": "< 50"},
      {"smiles": "CC(C)(O)Cn1ncc2c(Nc3ncc(C(F)(F)F)c(NC4CC4)n3)ccc(F)c21", "note": "[Example 172, 1-(4-((4-(cyclopropylamino)-5-(trifluoromethyl)pyrimidin-2-yl)amino)-7-fluoro-1H-indazol-1-yl)-2-methylpropan-2-ol]", "IC50": "< 50"},
      {"smiles": "CC(C)(C#N)n1ncc2c(Nc3ncc(C(F)(F)F)c(NCC(F)(F)F)n3)cccc21", "note": "[Example 112, 2-methyl-2-(4-((4-((2,2,2-trifluoroethyl)amino)-5-(trifluoromethyl)pyrimidin-2-yl)amino)-1H-indazol-1-yl)propanenitrile]", "IC50": "< 50"},
      {"smiles": "CCc1cc2cn[nH]c2cc1Nc1ncc(C(F)(F)F)c(NC)n1", "note": "[Example 122, N2-(5-ethyl-1H-indazol-6-yl)-N4-methyl-5-(trifluoromethyl)pyrimidine-2,4-diamine]", "IC50": "50 to 200"},
      {"smiles": "CNc1nc(Nc2ccc(CC#N)c3c2cnn3C)ncc1C(F)(F)F", "note": "[Example 55, 2-(1-methyl-4-((4-(methylamino)-5-(trifluoromethyl)pyrimidin-2-yl)amino)-1H-indazol-7-yl)acetonitrile]", "IC50": "< 50"},
      {"smiles": "CNc1nc(Nc2ccc3cn(C)nc3c2C)ncc1C(F)(F)F", "note": "[Example 19, N2-(2,7-dimethyl-2H-indazol-6-yl)-N4-methyl-5-(trifluoromethyl)pyrimidine-2,4-diamine]", "IC50": "< 50"},
      {"smiles": "CNc1nc(Nc2ncn3ccccc23)ncc1C(F)(F)F", "note": "[Example 117, N^2-(imidazo[1,5-a]pyridin-1-yl)-N4-methyl-5-(trifluoromethyl)pyrimidine-2,4-diamine]", "IC50": "≥ 200"},
      {"smiles": "CC(C)(O)Cn1ncc2c(Nc3ncc(C(F)F)c(NC4CC4)n3)cccc21", "note": "[Example 173, 1-[4-[[4-(cyclopropylamino)-5-(difluoromethyl)pyrimidin-2-yl]amino]indazol-1-yl]-2-methyl-propan-2-ol]", "IC50": "< 50"},
      {"smiles": "CNc1nc(Nc2ccc3c(C#N)n[nH]c3c2)ncc1C(F)(F)F", "note": "[Example 8, 6-((4-(methylamino)-5-(trifluoromethyl)pyrimidin-2-yl)amino)-1H-indazole-3-carbonitrile]", "IC50": "≥ 200"},
      {"smiles": "O=S(=O)(C1CC1)n1ncc2c(Nc3ncc(C(F)(F)F)c(NC4CC4)n3)ccnc21", "note": "[Example 159, N^4-cyclopropyl-N^2-(1-(cyclopropylsulfonyl)-1H-pyrazolo[3,4-b]pyridin-4-yl)-5-(trifluoromethyl)pyrimidine-2,4-diamine]", "IC50": "< 50"},
      {"smiles": "CNc1nc(Nc2c(C)nn3ccccc23)ncc1C(F)(F)F", "note": "[Example 62, N4-methyl-N2-(2-methylpyrazolo[1,5-a]pyridin-3-yl)-5-(trifluoromethyl) pyrimidine-2,4-diamine]", "IC50": "50 to 200"},
      {"smiles": "CS(=O)(=O)CCNc1nc(Nc2cccc3c2cnn3S(=O)(=O)C2CC2)ncc1C(F)(F)F", "note": "[Example 138, N^2-(1-(cyclopropylsulfonyl)-1H-indazol-4-yl)-N^4-(2-(methylsulfonyl)ethyl)-5-(trifluoromethyl)pyrimidine-2,4-diamine]", "IC50": "< 50"},
      {"smiles": "CNc1nc(Nc2cc3[nH]ncc3cc2F)ncc1C(F)(F)F", "note": "[Example 114, N^2-(5-fluoro-1H-indazol-6-yl)-N^4-methyl-5-(trifluoromethyl)pyrimidine-2,4-diamine]", "IC50": "< 50"},
      {"smiles": "CNc1nc(Nc2cc3[nH]ncc3cc2OC(F)(F)F)ncc1C(F)(F)F", "note": "[Example 129, N4-methyl-N2-[5-(trifluoromethoxy)-1H-indazol-6-yl]-5-(trifluoromethyl) pyrimidine-2,4-diamine]", "IC50": "< 50"},
      {"smiles": "FC(F)(F)c1cnc(Nc2cccc3c2cnn3CCN2CCOCC2)nc1NC1CC1", "note": "[Example 193, N^4-cyclopropyl-N^2-(1-(2-morpholinoethyl)-1H-indazol-4-yl)-5-(trifluoromethyl)pyrimidine-2,4-diamine]", "IC50": "< 50"},
      {"smiles": "CNc1nc(Nc2c(OC)ccc3c2cnn3C)ncc1C(F)(F)F", "note": "[Example 37, N2-(5-methoxy-1-methyl-1H-indazol-4-yl)-N4-methyl-5-(trifluoromethyl) pyrimidine-2,4-diamine]", "IC50": "< 50"},
      {"smiles": "CS(=O)(=O)CCn1ncc2c(Nc3ncc(C(F)(F)F)c(N[C@H]4C[C@@H]4F)n3)cccc21", "note": "[Example 199, N^4-((1S,2S)-2-fluorocyclopropyl)-N^2-(1-(2-(methylsulfonyl)ethyl)-1H-indazol-4-yl)-5-(trifluoromethyl)pyrimidine-2,4-diamine]", "IC50": "< 50"},
      {"smiles": "CNc1nc(Nc2c(C)nn3c(C#N)cccc23)ncc1C(F)(F)F", "note": "[Example 65, 2-methyl-3-((4-(methylamino)-5-(trifluoromethyl)pyrimidin-2-yl)amino)pyrazolo[1,5-a]pyridine-7-carbonitrile]", "IC50": "≥ 200"},
      {"smiles": "CNc1nc(Nc2cccc3c2cnn3S(C)(=O)=O)ncc1C(F)(F)F", "note": "[Example 101]", "IC50": "< 50"},
      {"smiles": "CNc1nc(Nc2cc3[nH]ncc3cc2OC)ncc1C(F)(F)F", "note": "[Example 3, N2-(5-methoxy-1H-indazol-6-yl)-N4-methyl-5-(trifluoromethyl)pyrimidine-2,4-diamine]", "IC50": "< 50"}
    ]}
  ]
}
